Reference: patent US20040077580A1, “Antisense modulation of PI3K P85 Expression” (priority 2000, published 2004)
Strand notation (5' to 3'): a small letter for the sugar, then the base; units joined by * are phosphorothioate-linked, units joined directly phosphodiester-linked; [ ] holds rarer units or linkages, { } end groups; capitals alone tell only the bases. e = 2'-O-(2-methoxyethyl) (MOE); [5mC] = 5-methylcytosine; d = 2'-deoxy (DNA)

system: mouse PI3K p85; experiment: Inhibition of mouse PI3K p85 mRNA levels by antisense oligonucleotides, real-time quantitative RT-PCR; format: cell-based; parameters: concentration or dose not given beside the values; conditions: chimeric phosphorothioate 2′-MOE gapmers, averaged from two experiments
Protocol: Cells were harvested 16 hours after oligonucleotide treatment.
Target sites are indicated by nucleotide numbers, as given in the sequence source reference (Genbank accession no. U50413; SEQ ID NO: 48), to which the oligonucleotide binds.
Cytidine residues are 5-methylcytidines throughout the oligonucleotides.
Data were obtained by real-time quantitative RT-PCR as described in other examples herein and are averaged from two experiments. […] If present, “N.D.” indicates “no data”.

Substance	% Inhib. of mouse PI3K p85 mRNA levels [%]
131406 (antisense e[5mC]*eG*e[5mC]*eT*eG*d[5mC]*dT*dT*d[5mC]*d[5mC]*dT*d[5mC]*d[5mC]*dA*dA*e[5mC]*eT*e[5mC]*eG*eG) [compound 131406]	56
131407 (antisense e[5mC]*eG*e[5mC]*eT*e[5mC]*d[5mC]*dA*d[5mC]*dT*d[5mC]*dT*d[5mC]*dA*dG*d[5mC]*eT*eT*e[5mC]*eA*e[5mC]) [compound 131407]	85
131408 (antisense e[5mC]*e[5mC]*eA*eT*e[5mC]*dT*dG*dT*d[5mC]*d[5mC]*dT*d[5mC]*d[5mC]*dA*dT*e[5mC]*eA*eA*e[5mC]*eG) [compound 131408]	88
131409 (antisense eG*e[5mC]*eA*e[5mC]*eT*d[5mC]*dA*dT*dG*dT*d[5mC]*dT*dG*d[5mC]*dA*eG*e[5mC]*eT*e[5mC]*eT) [compound 131409]	85
131410 (antisense e[5mC]*e[5mC]*eT*eG*eG*d[5mC]*d[5mC]*dA*dT*d[5mC]*dA*d[5mC]*dT*dG*dA*eA*eT*e[5mC]*e[5mC]*eA) [compound 131410]	95
131411 (antisense e[5mC]*e[5mC]*eA*eG*eT*dG*dG*dT*dT*dT*d[5mC]*dA*dT*dT*dG*eT*eA*eG*e[5mC]*e[5mC]) [compound 131411]	90
131412 (antisense e[5mC]*eT*eT*eG*e[5mC]*dT*dG*d[5mC]*dT*d[5mC]*d[5mC]*dG*dT*dG*dT*e[5mC]*eA*eG*e[5mC]*eT) [compound 131412]	85
131413 (antisense eT*e[5mC]*eT*e[5mC]*e[5mC]*dA*dA*dG*dT*d[5mC]*d[5mC]*dA*d[5mC]*dT*dG*eA*e[5mC]*eG*e[5mC]*eG) [compound 131413]	56
131414 (antisense eT*e[5mC]*eG*eG*e[5mC]*dG*dA*dG*dA*dT*dA*dG*d[5mC]*dG*dT*eT*eT*eG*eA*eA) [compound 131414]	73
131415 (antisense eA*eT*eA*e[5mC]*eT*dG*dA*dA*dG*d[5mC]*dG*dT*dA*dA*dG*e[5mC]*e[5mC]*eA*eA*e[5mC]) [compound 131415]	75
131416 (antisense eT*eG*e[5mC]*eT*eG*dG*dT*dG*d[5mC]*dT*dG*dG*d[5mC]*dT*dG*eT*e[5mC]*eT*e[5mC]*eT) [compound 131416]	68
131417 (antisense eG*eG*eT*eG*eT*dA*dA*dG*dA*dG*dT*dG*dT*dA*dA*eT*e[5mC]*eG*e[5mC]*e[5mC]) [compound 131417]	78
131418 (antisense e[5mC]*e[5mC]*eT*eG*e[5mC]*dT*dG*dG*dT*dA*dT*dT*dT*dG*dG*eA*e[5mC]*eA*e[5mC]*eT) [compound 131418]	50
131419 (antisense eG*e[5mC]*eT*e[5mC]*e[5mC]*dT*dG*dG*dG*dT*dT*dT*dG*dG*d[5mC]*eA*eT*eT*eG*eT) [compound 131419]	45
131420 (antisense e[5mC]*eG*eA*eT*e[5mC]*dT*d[5mC]*dT*d[5mC]*dG*dG*dT*dA*d[5mC]*dT*e[5mC]*eA*eG*e[5mC]*eT) [compound 131420]	79
131421 (antisense eG*e[5mC]*eT*e[5mC]*e[5mC]*d[5mC]*dG*dA*d[5mC]*dA*dT*dT*d[5mC]*d[5mC]*dA*e[5mC]*eG*eT*e[5mC]*eT) [compound 131421]	65
131422 (antisense e[5mC]*e[5mC]*eA*eT*eA*dG*d[5mC]*d[5mC]*dG*dG*dT*dG*dG*d[5mC]*dA*eG*eT*e[5mC]*eT*eT) [compound 131422]	40
131423 (antisense eT*eT*eT*eG*e[5mC]*dT*dT*d[5mC]*dT*d[5mC]*dA*dG*dA*dG*dG*e[5mC]*e[5mC]*eT*eT*eG) [compound 131423]	40
